Test results taken from patent publication US8044221B2, “Fluorine-containing boronic acid ester compound and method for producing the same” (Unimatec Co., Ltd., priority 2008, dated 2011).
Read-outs that look alike come from different tables or passages of the source.

Assay: Solubility in fluorine-containing organic solvent 1,3-bis(trifluoromethyl)benzene, visually measured
Protocol: The solubility of the fluorine-containing boronic acid ester compound [A] in 1,3-bis(trifluoromethyl)benzene, which was a fluorine-containing organic solvent used in Reference Example 3, described later, was 3.0 g/10 ml·solvent. Here, the solubility was determined in such a manner that the compound was added and stirred in 10 ml of said fluorine-containing organic solvent at 25° C., and then the maximum amount of addition sufficient to make the solution homogeneous was visually measured.
From this fact, a high solubility in a fluorine-containing organic solvent was confirmed.

[1] = 10 ml solvent, stirred at 25° C., maximum amount of addition giving a homogeneous solution, visually measured

Row | Structure (SMILES) | solubility in 1,3-bis(trifluoromethyl)benzene [1] | other results
1 | OB(O)c1ccc(B(O)O)cc1 [1,4-benzene diboronic acid] | insoluble | –
2 | CC1(C)OB(c2ccc(B3OC(C)(C)C(C)(C)O3)cc2)OC1(C)C [1,4-bis(4,4,5,5-tetramethyl-1,3,2-dioxaborolan-2-yl)benzene] | – | solubility in 1,3-bis(trifluoromethyl)benzene: 0.17 g/10 ml·solvent
3 | CN(C(=O)C(F)(OC(F)(F)C(F)(F)C(F)(F)F)C(F)(F)F)c1cc(B2OC(C)(C)C(C)(C)O2)cc(B2OC(C)(C)C(C)(C)O2)c1 (stereo not shown) [compound [A]] | 3.0 g/10 ml·solvent | –
4 | CN(C(=O)C(F)(OC(F)(F)C(F)(OC(F)(F)C(F)(OC(F)(F)C(F)(F)C(F)(F)F)C(F)(F)F)C(F)(F)F)C(F)(F)F)c1cc(B2OC(C)(C)C(C)(C)O2)cc(B2OC(C)(C)C(C)(C)O2)c1 (stereo not shown) [compound [B]] | – | solubility in a fluorine-containing organic solvent (5 g added to 10 ml of 1,3-bis(trifluoromethyl)benzene): a homogeneous solution was formed
